Reference: US20070065366A1, “Pharmaceutical formulations comprising a long-acting beta2-agonist for administration by nebulisation” (Chiesi Farmaceutici S.p.A., priority 2005, published 2007)

Tests used:
[1] = Stability of CHF 4226 in aqueous solution, pH 4.0 to 5.5, buffers comprising citric acid at different concentrations (HPLC); assay type: physicochemical; conditions: pH interval between 4.0 and 5.0, 40° C., 75% R.H.
Experimental: The chemical stability of CHF 4226 was then investigated in the pH interval comprised from 4.0 to 5.5 adjusted with buffers comprising citric acid at different concentrations.
The different formulations were stored under accelerated conditions (40° C., 75% R.H.) for at least four months.
Various liquid, propellant-free formulations comprising 0.001% w/v CHF 4226 were prepared according the procedure described in the Example 1 except that sodium chloride was not added in order to better appreciate the effect of the buffer concentration on the chemical stability.
The pH was adjusted in the interval comprised between 4.0 and 5.5 with buffers consisting of different relative percentages of the citric acid/sodium citrate couple or the citric acid/dibasic sodium phosphate couple. Each formulation was distributed in 20 ml glass vials.
The stability of the formulations was evaluated under accelerated conditions (40° C., 75% R.H.) for at least four months.
The impurities/degradation products of CHF 4226 were determined by HPLC using the experimental conditions reported in the Example 2.

[2] = First stability study of CHF 4226 solutions, pH 3.0 to 6.0 adjusted with different agents (HPLC); assay type: physicochemical; conditions: for stability (total impurities/degradation products): compared with not stable, higher than 5% after 1 month accelerated
Experimental: Stability studies in different conditions of pH were carried out.
The amount of the main degradation products and the total impurities and degradation products of CHF 4226 were determined by HPLC.
Total impurities and degradation products comprise the starting impurities present in the drug, the main degradation products and other minor degradation products forming during storage.
In a first study, the effect of the pH in a rather broad range comprised between 3.0 and 6.0 adjusted with different kind of agents was investigated.
The different formulations were stored under long term (25° C., 60% R.H.) and accelerated (40° C., 75% R.H.) conditions for three months.

[3] = cited from earlier work

Row | chemical stability [1] | chemical stability in aqueous solution ([2]; pH 4.5±0.1, citrate buffer about 19 mM, compared with other pH/agents, 25° C./60% R.H. and 40° C./75% R.H., three months) | stability (total impurities/degradation products) ([2]; phosphoric acid, pH 3.0) | stability (total impurities/degradation products) ([2]; phosphoric acid/phosphate buffer, pH 6.0) | SMILES | stability in solution ([3]; pH 4.0 to 6.0, acetate or acetate/phosphate buffer, protected from air) | effect of ferric ions on the auto-oxidation rate ([3]; presence of ferric ions, except the solution at pH 6.0 (acetate and phosphate buffer)) | pH at which the lowest degradation rate was obtained ([3]; solutions at pH 4.0, 4.5, 5.0, 5.5 and 6.0)
1 | improved | chemically more stable | analogous behavior | analogous behavior | COc1ccc(C[C@@H](C)NC[C@H](O)c2ccc(O)c3[nH]c(=O)ccc23)cc1 [CHF 4226, 8-hydroxy-5-[(1R)-1-hydroxy-2-[[(1R)-2-(4-methoxyphenyl)-1-methylethyl]amino]ethyl]-2(1H)-quinolinone] | – | – | –
2 | – | – | – | – | CCC(NC(C)C)C(O)c1ccc(O)c2[nH]c(=O)ccc12 (stereo not shown) [procaterol] | more stable at more acidic pHs | increased the auto-oxidation rate | 4.0
